# Data from PubChem BioAssay AID1918994 (Molecular Pharmacology Branch, DTP, NCI, 2023).
# Tested on: 292921-168-R-J2-PDC complex spheroid growth
# Experiment: Anticancer human tumor 292921-168-R-J2-PDC patient-derived pancreatic carcinoma cell line growth inhibition [AhR]
# Conditions: for IC50: curve of first compound; for viability, T/C: stronger effect = lower value
# Method in brief: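 Agents were dosed in half-log steps down from roughly clinical Cmax, or from 10 microM where Cmax was unknown, alone and with AhR antagonists. Read-out: percent test/control growth of tumor spheroids containing HUVEC and MSC stromal cells.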
# [1] = second compound 0.1 µM, first compound 0.0316 µM
# [2] = second compound 0.1 µM, first compound 0.1 µM
# [3] = second compound 0.1 µM, first compound 0.316 µM
# [4] = second compound 0.1 µM, first compound 1 µM
# [5] = second compound 0.1 µM, first compound 3.16 µM
# [6] = second compound 0.1 µM, first compound 10 µM
# [7] = second compound 0.316 µM, first compound 0.0316 µM
# [8] = second compound 0.316 µM, first compound 0.1 µM
# [9] = second compound 0.316 µM, first compound 0.316 µM
# [10] = second compound 0.316 µM, first compound 1 µM
# [11] = second compound 0.316 µM, first compound 3.16 µM
# [12] = second compound 0.316 µM, first compound 10 µM
# [13] = second compound 1 µM, first compound 0.0316 µM
# [14] = second compound 1 µM, first compound 0.1 µM
# [15] = second compound 1 µM, first compound 0.316 µM
# [16] = second compound 1 µM, first compound 1 µM
# [17] = second compound 1 µM, first compound 3.16 µM
# [18] = second compound 1 µM, first compound 10 µM
# [19] = second compound 3.16 µM, first compound 0.0316 µM
# [20] = second compound 3.16 µM, first compound 0.1 µM
# [21] = second compound 3.16 µM, first compound 0.316 µM
# [22] = second compound 3.16 µM, first compound 1 µM
# [23] = second compound 3.16 µM, first compound 3.16 µM
# [24] = second compound 3.16 µM, first compound 10 µM
# [25] = second compound 10 µM, first compound 0.0316 µM
# [26] = second compound 10 µM, first compound 0.1 µM
# [27] = second compound 10 µM, first compound 0.316 µM
# [28] = second compound 10 µM, first compound 1 µM
# [29] = second compound 10 µM, first compound 3.16 µM
# [30] = second compound 10 µM, first compound 10 µM
# 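Also: spheroids exposed to compounds for seven days after three days of growth.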
smiles,measurement,setting,value
CC1(C)CCC(CN2CCN(c3ccc(C(=O)NS(=O)(=O)c4ccc(NCC5CCOCC5)c([N+](=O)[O-])c4)c(Oc4cnc5[nH]ccc5c4)c3)CC2)=C(c2ccc(Cl)cc2)C1 + CC(CO)NC(=O)c1cc(-c2ccc(Cl)cc2)nn(-c2cnn(C)c2)c1=O,IC50,second compound 0.1 µM,6190 nM
same,IC50,second compound 0.316 µM,6330 nM
same,IC50,second compound 1 µM,6810 nM
same,IC50,second compound 3.16 µM,5750 nM
same,IC50,second compound 10 µM,4310 nM
same,"viability, T/C",[1],103%
same,"viability, T/C",[2],101%
same,"viability, T/C",[3],108%
same,"viability, T/C",[4],103%
same,"viability, T/C",[5],91.1%
same,"viability, T/C",[6],20.7%
same,"viability, T/C",[7],105%
same,"viability, T/C",[8],98.7%
same,"viability, T/C",[9],106%
same,"viability, T/C",[10],95.6%
same,"viability, T/C",[11],97.5%
same,"viability, T/C",[12],18.8%
same,"viability, T/C",[13],96.7%
same,"viability, T/C",[14],94.9%
same,"viability, T/C",[15],102%
same,"viability, T/C",[16],98.2%
same,"viability, T/C",[17],101%
same,"viability, T/C",[18],25.6%
same,"viability, T/C",[19],92.9%
same,"viability, T/C",[20],87.4%
same,"viability, T/C",[21],93.3%
same,"viability, T/C",[22],96.7%
same,"viability, T/C",[23],83.8%
same,"viability, T/C",[24],18.5%
same,"viability, T/C",[25],67.8%
same,"viability, T/C",[26],70.7%
same,"viability, T/C",[27],71.6%
same,"viability, T/C",[28],72.5%
same,"viability, T/C",[29],62.2%
same,"viability, T/C",[30],16%
CCN(c1cc(-c2ccc(CN3CCOCC3)cc2)cc(C(=O)NCc2c(C)cc(C)[nH]c2=O)c1C)C1CCOCC1 + CC(CO)NC(=O)c1cc(-c2ccc(Cl)cc2)nn(-c2cnn(C)c2)c1=O,IC50,second compound 0.1 µM,> 3000 nM
same,IC50,second compound 0.316 µM,> 3000 nM
same,IC50,second compound 1 µM,> 3000 nM
same,IC50,second compound 3.16 µM,> 3000 nM
same,IC50,second compound 10 µM,> 3000 nM
same,"viability, T/C","second compound 0.1 µM, first compound 0.00949 µM",103%
same,"viability, T/C","second compound 0.1 µM, first compound 0.03 µM",100%
same,"viability, T/C","second compound 0.1 µM, first compound 0.0949 µM",102%
same,"viability, T/C","second compound 0.1 µM, first compound 0.3 µM",93.1%
same,"viability, T/C","second compound 0.1 µM, first compound 0.949 µM",96.9%
same,"viability, T/C","second compound 0.1 µM, first compound 3 µM",93.9%
same,"viability, T/C","second compound 0.316 µM, first compound 0.00949 µM",107%
same,"viability, T/C","second compound 0.316 µM, first compound 0.03 µM",102%
same,"viability, T/C","second compound 0.316 µM, first compound 0.0949 µM",100%
same,"viability, T/C","second compound 0.316 µM, first compound 0.3 µM",103%
same,"viability, T/C","second compound 0.316 µM, first compound 0.949 µM",94.8%
same,"viability, T/C","second compound 0.316 µM, first compound 3 µM",87%
same,"viability, T/C","second compound 1 µM, first compound 0.00949 µM",102%
same,"viability, T/C","second compound 1 µM, first compound 0.03 µM",99%
same,"viability, T/C","second compound 1 µM, first compound 0.0949 µM",110%
same,"viability, T/C","second compound 1 µM, first compound 0.3 µM",97%
same,"viability, T/C","second compound 1 µM, first compound 0.949 µM",95.5%
same,"viability, T/C","second compound 1 µM, first compound 3 µM",86.5%
same,"viability, T/C","second compound 3.16 µM, first compound 0.00949 µM",91.9%
same,"viability, T/C","second compound 3.16 µM, first compound 0.03 µM",89.4%
same,"viability, T/C","second compound 3.16 µM, first compound 0.0949 µM",104%
same,"viability, T/C","second compound 3.16 µM, first compound 0.3 µM",85%
same,"viability, T/C","second compound 3.16 µM, first compound 0.949 µM",81%
same,"viability, T/C","second compound 3.16 µM, first compound 3 µM",83%
same,"viability, T/C","second compound 10 µM, first compound 0.00949 µM",69.1%
same,"viability, T/C","second compound 10 µM, first compound 0.03 µM",71.1%
same,"viability, T/C","second compound 10 µM, first compound 0.0949 µM",76.4%
same,"viability, T/C","second compound 10 µM, first compound 0.3 µM",76.2%
same,"viability, T/C","second compound 10 µM, first compound 0.949 µM",69.9%
same,"viability, T/C","second compound 10 µM, first compound 3 µM",72.9%
Cn1ncnc1C1c2n[nH]c(=O)c3cc(F)cc(c23)NC1c1ccc(F)cc1 (stereo not given) + CC(CO)NC(=O)c1cc(-c2ccc(Cl)cc2)nn(-c2cnn(C)c2)c1=O,IC50,second compound 0.1 µM,> 100 nM
same,IC50,second compound 0.316 µM,> 100 nM
same,IC50,second compound 1 µM,> 100 nM
same,IC50,second compound 3.16 µM,> 100 nM
same,IC50,second compound 10 µM,> 100 nM
same,"viability, T/C","second compound 0.1 µM, first compound 0.000316 µM",103%
same,"viability, T/C","second compound 0.1 µM, first compound 0.001 µM",109%
same,"viability, T/C","second compound 0.1 µM, first compound 0.00316 µM",100%
same,"viability, T/C","second compound 0.1 µM, first compound 0.01 µM",99.8%
same,"viability, T/C",[1],94.3%
same,"viability, T/C",[2],87.6%
same,"viability, T/C","second compound 0.316 µM, first compound 0.000316 µM",109%
same,"viability, T/C","second compound 0.316 µM, first compound 0.001 µM",97.5%
same,"viability, T/C","second compound 0.316 µM, first compound 0.00316 µM",104%
same,"viability, T/C","second compound 0.316 µM, first compound 0.01 µM",96%
same,"viability, T/C",[7],96.5%
same,"viability, T/C",[8],79.9%
same,"viability, T/C","second compound 1 µM, first compound 0.000316 µM",108%
same,"viability, T/C","second compound 1 µM, first compound 0.001 µM",106%
same,"viability, T/C","second compound 1 µM, first compound 0.00316 µM",99.6%
same,"viability, T/C","second compound 1 µM, first compound 0.01 µM",89.9%
same,"viability, T/C",[13],86.3%
same,"viability, T/C",[14],94.3%
same,"viability, T/C","second compound 3.16 µM, first compound 0.000316 µM",92.2%
same,"viability, T/C","second compound 3.16 µM, first compound 0.001 µM",99.2%
same,"viability, T/C","second compound 3.16 µM, first compound 0.00316 µM",92.6%
same,"viability, T/C","second compound 3.16 µM, first compound 0.01 µM",92.9%
same,"viability, T/C",[19],77.1%
same,"viability, T/C",[20],77.4%
same,"viability, T/C","second compound 10 µM, first compound 0.000316 µM",68.5%
same,"viability, T/C","second compound 10 µM, first compound 0.001 µM",73.3%
same,"viability, T/C","second compound 10 µM, first compound 0.00316 µM",75.8%
same,"viability, T/C","second compound 10 µM, first compound 0.01 µM",73%
same,"viability, T/C",[25],67%
same,"viability, T/C",[26],64.6%
NS(=O)(=O)OCC1CC(n2ccc3c(NC4CCc5ccccc54)ncnc32)CC1O (stereo not given) + CC(CO)NC(=O)c1cc(-c2ccc(Cl)cc2)nn(-c2cnn(C)c2)c1=O,IC50,second compound 0.1 µM,213 nM
same,IC50,second compound 0.316 µM,221 nM
same,IC50,second compound 1 µM,223 nM
same,IC50,second compound 3.16 µM,208 nM
same,IC50,second compound 10 µM,169 nM
same,"viability, T/C",[1],117%
same,"viability, T/C",[2],98.1%
same,"viability, T/C",[3],24.8%
same,"viability, T/C",[4],5.49%
same,"viability, T/C",[5],4.31%
same,"viability, T/C",[6],5.11%
same,"viability, T/C",[7],125%
same,"viability, T/C",[8],98%
same,"viability, T/C",[9],28.5%
same,"viability, T/C",[10],6.03%
same,"viability, T/C",[11],3.81%
same,"viability, T/C",[12],4.31%
same,"viability, T/C",[13],116%
same,"viability, T/C",[14],101%
same,"viability, T/C",[15],27.8%
same,"viability, T/C",[16],5.81%
same,"viability, T/C",[17],4.08%
same,"viability, T/C",[18],4.94%
same,"viability, T/C",[19],105%
same,"viability, T/C",[20],93.5%
same,"viability, T/C",[21],25.2%
same,"viability, T/C",[22],5.74%
same,"viability, T/C",[23],4%
same,"viability, T/C",[24],5.65%
same,"viability, T/C",[25],89.6%
same,"viability, T/C",[26],73.1%
same,"viability, T/C",[27],22.2%
same,"viability, T/C",[28],6.76%
same,"viability, T/C",[29],3.96%
same,"viability, T/C",[30],5.6%
